Measured values: patent US11236084B2, “Substituted azaindoline derivatives as NIK inhibitors” (Janssen Pharmaceutica NV, priority 2017, dated 2022)
Where two headings read alike, the source gives them in different places.

Target: recombinant human NF-kappaB-inducing kinase (NIK/MAP3K14) (Homo sapiens, UniProt Q99558)
Test: Biological Assay B: inhibition of auto-phosphorylation of recombinant human NIK/MAP3K14 (AlphaScreen), performed at 2 locations
Type: biochemical
Conditions: averaged values
Method: Inhibition of Auto-Phosphorylation of Recombinant Human NF-kappaB-Inducing Kinase (NIK/MAP3K14) Activity (AlphaScreen®)
NIK/MAP3K14 auto-phosphorylation activity was measured using the AlphaScreen® (αscreen) format (Perkin Elmer). All compounds tested were dissolved in dimethyl sulfoxide (DMSO) and further dilutions were made in assay buffer. Final DMSO concentration was 1% (v/v) in assays. Assay buffer was 50 mM Tris pH 7.5 containing 1 mM EGTA (ethylene glycol tetraacetic acid), 1 mM DTT (dithiothreitol), 0.1 mM Na3VO4, 5 mM MgCl2, 0.01% Tween® 20. Assays were carried out in 384 well Alphaplates (Perkin Elmer). Incubations consisted of compound, 25 microM Adenosine-5′-triphosphate (ATP), and 0.2 nM NIK/MAP3K14. Incubations were initiated by addition of GST-tagged NIK/MAP3K14 enzyme, carried out for 1 h at 25° C. and terminated by addition of stop buffer containing anti-phospho-IKK Ser176/180 antibody. Protein A Acceptor and Glutathione-Donor beads were added before reading using an EnVision® Multilabel Plate Reader (Perkin Elmer). Signal obtained in the wells containing blank samples was subtracted from all other wells and IC50's were determined by fitting a sigmoidal curve to % inhibition of control versus Log10 compound concentration.
Assay B was performed at 2 different locations.
Data for the compounds of the invention in the above assays are provided in Table A (the values in Table are averaged values over all measurements on all batches of a compound; values as IC50 (nM)). (‘n.c.’ means not calculated: ‘Co.’ means compound)

[1] = location 1, AlphaScreen auto-phosphorylation, read-out: Assay B location 1 IC50
[2] = location 2, AlphaScreen auto-phosphorylation, read-out: Assay B location 2 IC50

recombinant human NF-kappaB-inducing kinase (NIK/MAP3K14), sequence (Q99558 whole entry): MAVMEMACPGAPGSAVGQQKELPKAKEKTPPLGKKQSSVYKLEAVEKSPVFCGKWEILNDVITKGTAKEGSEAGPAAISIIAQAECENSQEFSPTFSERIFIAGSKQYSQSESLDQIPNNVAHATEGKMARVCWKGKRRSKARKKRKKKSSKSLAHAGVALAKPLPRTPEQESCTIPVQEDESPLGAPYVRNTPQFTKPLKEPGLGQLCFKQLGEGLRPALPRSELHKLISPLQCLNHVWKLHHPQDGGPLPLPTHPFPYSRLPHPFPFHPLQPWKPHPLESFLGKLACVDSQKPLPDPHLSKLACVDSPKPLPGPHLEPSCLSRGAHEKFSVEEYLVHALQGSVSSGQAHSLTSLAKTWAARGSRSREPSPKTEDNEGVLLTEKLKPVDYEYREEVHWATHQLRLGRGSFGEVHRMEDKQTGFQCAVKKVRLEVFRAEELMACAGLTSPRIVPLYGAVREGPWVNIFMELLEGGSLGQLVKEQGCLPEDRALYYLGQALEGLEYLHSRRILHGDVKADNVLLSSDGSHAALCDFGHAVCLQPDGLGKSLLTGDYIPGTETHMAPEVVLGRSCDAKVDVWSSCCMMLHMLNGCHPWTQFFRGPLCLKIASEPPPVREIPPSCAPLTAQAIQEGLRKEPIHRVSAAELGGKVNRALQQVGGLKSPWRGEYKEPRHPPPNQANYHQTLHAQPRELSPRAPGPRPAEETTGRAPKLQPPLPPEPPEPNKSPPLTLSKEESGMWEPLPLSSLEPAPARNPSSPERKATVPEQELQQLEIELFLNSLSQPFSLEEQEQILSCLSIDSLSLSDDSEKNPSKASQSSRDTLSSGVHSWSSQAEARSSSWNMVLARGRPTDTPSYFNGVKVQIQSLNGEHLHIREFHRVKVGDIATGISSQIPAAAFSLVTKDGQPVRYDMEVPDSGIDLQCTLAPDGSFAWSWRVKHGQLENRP

Row | SMILES | IC50 [1] [nM] | IC50 [2] [nM] | IC50 (location 1, NIK auto-phosphorylation, AlphaScreen, read-out: Assay B location 1 IC50) [nM]
1 | CC1(CO)CNc2ncc(-c3ccnc(Nc4cc(F)c(N5CCOCC5)cc4Cl)n3)cc21 (centres unmarked) [Compound 365] | 13.8 | 11 | –
2 | COc1cc(N2CCC(OC)CC2)ccc1Nc1nccc(-c2cnc3c(c2)C(C)(CO)CN3)n1 (centres unmarked) [Compound 213] | – | 13.8 | –
3 | CC1(CO)CNc2ncc(-c3ccnc(Nc4ccccc4C(F)(F)F)n3)cc21 (centres unmarked) [Compound 180] | – | 204 | –
4 | COc1cc(C(=O)N2CCCCC2)ccc1Nc1nccc(-c2cnc3c(c2)C(C)(CO)CN3)n1 (single isomer, unassigned) [Compound 156] | – | 3.2 | –
5 | COc1cc(N2CC(O)C2)c(Cl)cc1Nc1nccc(-c2cnc3c(c2)C(C)(CO)CN3)n1 (centres unmarked) [Compound 302] | – | 1.7 | –
6 | Cc1cc(N2CCOCC2)c(C#N)cc1Nc1nccc(-c2cnc3c(c2)C(C)(CO)CN3)n1 (centres unmarked) [Compound 363] | 17.8 | 10.7 | –
7 | COc1cc(N2CCOCC2)c(F)cc1Nc1nccc(-c2cnc3c(c2)C(C)(CO)CN3)n1 (single isomer, unassigned) [Compound 253] | 102 | 42.7 | –
8 | COc1cc(N2CCC2)c(Cl)cc1Nc1nccc(-c2cnc3c(c2)C(C)(CO)CN3)n1 (centres unmarked) [Compound 294] | 12 | 2.3 | –
9 | COCCCN(C)c1cc(OC)c(Nc2nccc(-c3cnc4c(c3)C(C)(CO)CN4)n2)cc1Cl (centres unmarked) [Compound 252] | – | 7.4 | –
10 | CC1(CO)CNc2ncc(-c3ccnc(Nc4cccc(Cl)c4Cl)n3)cc21 (centres unmarked) [Compound 227] | 72.4 | 41.7 | –
11 | COc1cc(N2CCC(O)C2)c(Cl)cc1Nc1nccc(-c2cnc3c(c2)C(C)(CO)CN3)n1 (centres unmarked) [Compound 325] | – | 3.6 | –
12 | CC1(CO)CNc2ncc(-c3ccnc(Nc4cc(F)c(N5CCOCC5)cc4Cl)n3)cc21 (single isomer, unassigned) [Compound 263] | 129 | 53.7 | –
13 | CNC(=O)c1ccc(Nc2nccc(-c3cnc4c(c3)C(C)(CO)CN4)n2)c(OC)c1 (centres unmarked) [Compound 152] | – | 11.2 | –
14 | CN(C)CCOc1cc(N2CCOCC2)c(F)cc1Nc1nccc(-c2cnc3c(c2)C(C)(CO)CN3)n1 (centres unmarked) [Compound 370] | 1620 | 977 | –
15 | Cc1cc(N2CCOCC2)c(Cl)cc1Nc1nccc(-c2cnc3c(c2)C(C)(CO)CN3)n1 (single isomer, unassigned) [Compound 258] | 91.2 | 25.7 | –
16 | CCN1CCN(c2cc(OC)c(Nc3nccc(-c4cnc5c(c4)C(C)(CO)CN5)n3)cc2Cl)CC1 (centres unmarked) [Compound 268] | 4.5 | 0.7 | –
17 | COc1cc(Cl)c(C)c(Nc2nccc(-c3cnc4c(c3)C(C)(CO)CN4)n2)c1 (centres unmarked) [Compound 230] | 7.4 | 6.6 | –
18 | COc1cc(N2CC3(CCOCC3)C2)c(Cl)cc1Nc1ncc(F)c(-c2cnc3c(c2)C(C)(CO)CN3)n1 (centres unmarked) [Compound 346] | – | – | 7.4
19 | COc1ccc(Nc2nccc(-c3cnc4c(c3)C(C)(CO)CN4)n2)c(OC)c1 (centres unmarked) [Compound 164] | – | 5.6 | –
20 | COCCN(C)c1cc(OC)c(Nc2nccc(-c3cnc4c(c3)C(C)(CO)CN4)n2)cc1Cl (centres unmarked) [Compound 5] | 6.3 | 4.1 | –
21 | COc1cc(N2CC3(CCOCC3)C2)ccc1Nc1nccc(-c2cnc3c(c2)C(C)(CO)CN3)n1 (centres unmarked) [Compound 242] | 35.5 | 13.8 | –
22 | Cc1c(C#N)cccc1Nc1nccc(-c2cnc3c(c2)C(C)(CO)CN3)n1 (centres unmarked) [Compound 223] | – | 63.1 | –
23 | Cc1ccc(OC(F)(F)F)cc1Nc1nccc(-c2cnc3c(c2)C(C)(CO)CN3)n1 (centres unmarked) [Compound 210] | – | 30.9 | –
24 | Cc1ccc(F)cc1Nc1nccc(-c2cnc3c(c2)C(C)(CO)CN3)n1 (centres unmarked) [Compound 198] | – | 8.5 | –

Row | SMILES | IC50 [1] [nM] | IC50 [2] [nM] | IC50 (location 1, NIK auto-phosphorylation, AlphaScreen, read-out: Assay B location 1 IC50) [nM]
25 | COc1cc(C(=O)N2CCCCC2)ccc1Nc1nccc(-c2cnc3c(c2)C(C)(CO)CN3)n1 (single isomer, unassigned) [Compound 157] | – | 63.1 | –
26 | COc1ccc(N2CCN(C)CC2)cc1Nc1nccc(-c2cnc3c(c2)C(C)(CO)CN3)n1 (centres unmarked) [Compound 238] | ~6610 | > 10000 | –
27 | COc1cc(CN2CCOCC2)c(Cl)cc1Nc1nccc(-c2cnc3c(c2)C(C)(CO)CN3)n1 (centres unmarked) [Compound 324] | 7.9 | 3.8 | –
28 | CC(C)Oc1ccccc1Nc1nccc(-c2cnc3c(c2)C(C)(CO)CN3)n1 (centres unmarked) [Compound 175] | – | 33.9 | –
29 | COc1cc(OCCN(C)C)c(Cl)cc1Nc1nccc(-c2cnc3c(c2)C(C)(CO)CN3)n1 (centres unmarked) [Compound 314] | 4.1 | 3.1 | –
30 | COc1cc(Nc2nccc(-c3cnc4c(c3)C(C)(CO)CN4)n2)cc(C(F)(F)F)c1 (centres unmarked) [Compound 193] | – | 22.9 | –
31 | COCCOc1cc(N2CCOCC2)c(F)cc1Nc1nccc(-c2cnc3c(c2)C(C)(CO)CN3)n1 (centres unmarked) [Compound 368] | 191 | 112 | –
32 | CC1(CO)CNc2ncc(-c3ccnc(Nc4cc(Cl)c(N5CCOCC5)cc4Cl)n3)cc21 (single isomer, unassigned) [Compound 265] | 47.9 | 35.5 | –
33 | COc1ccc(F)cc1Nc1nccc(-c2cnc3c(c2)C(C)(CO)CN3)n1 (centres unmarked) [Compound 182] | – | 3 | –
34 | CC1(CO)CNc2ncc(-c3ccnc(Nc4ccccc4OC4CCOCC4)n3)cc21 (centres unmarked) [Compound 247] | 38 | 22.4 | –
35 | Cc1c(Cl)cccc1Nc1nccc(-c2cnc3c(c2)C(C)(CO)CN3)n1 (centres unmarked) [Compound 224] | – | 38 | –
36 | COc1cc(CN2CCOCC2)ccc1Nc1nccc(-c2cnc3c(c2)C(C)(CO)CN3)n1 (centres unmarked) [Compound 165] | – | 23.4 | –
37 | COc1cc(N2CCOCC2)c(Cl)cc1Nc1nccc(-c2cnc3c(c2)C(C)(CO)CN3)n1 (single isomer, unassigned) [Compound 6R] | 19.1 | 27.7 | –
38 | CN(C)CCOc1cc(N2CCOCC2)c(F)cc1Nc1nccc(-c2cnc3c(c2)C(C)(CO)CN3)n1 (single isomer, unassigned) [Compound 297] | 708 | 309 | –
39 | COc1cc(N2CCC(OC)C2)c(Cl)cc1Nc1nccc(-c2cnc3c(c2)C(C)(CO)CN3)n1 (centres unmarked) [Compound 285] | 7.8 | 1.8 | –
40 | COc1ccc(NC(C)=O)cc1Nc1nccc(-c2cnc3c(c2)C(C)(CO)CN3)n1 (centres unmarked) [Compound 221] | – | 10.5 | –
41 | CC1(C)CNc2ncc(-c3ccnc(Nc4ccc(C(=O)NC5CNC5)cc4)n3)cc21 [Compound 34] | – | 1.6 | –
42 | COc1cc(OC2CCN(C)C2)ccc1Nc1nccc(-c2cnc3c(c2)C(C)(CO)CN3)n1 (centres unmarked) [Compound 229] | 45.7 | 37.2 | –
43 | COc1cc(N2CCOCC2)c(F)cc1Nc1nccc(-c2cnc3c(c2)C(C)(CO)CN3)n1 (single isomer, unassigned) [Compound 254] | 6.5 | 3.6 | –
44 | COc1cc(N2CCN(C)CC2)ccc1Nc1nccc(-c2cnc3c(c2)C(C)(CO)CN3)n1 (centres unmarked) [Compound 187] | – | 18.2 | –
45 | COc1cc(N2CCC(N(C)C)CC2)c(Cl)cc1Nc1nccc(-c2cnc3c(c2)C(C)(C)CN3)n1 [Compound 330] | 3.6 | 0.7 | –
46 | Cc1cc(N2CCOCC2)c(C#N)cc1Nc1nccc(-c2cnc3c(c2)C(C)(CO)CN3)n1 (single isomer, unassigned) [Compound 264] | 6.6 | 6 | –
47 | COc1cc(OC2CCN(C)CC2)c(F)cc1Nc1nccc(-c2cnc3c(c2)C(C)(CO)CN3)n1 (centres unmarked) [Compound 283] | 5.3 | 2.8 | –
48 | COc1cc(OCC(=O)N(C)C)c(Cl)cc1Nc1nccc(-c2cnc3c(c2)C(C)(CO)CN3)n1 (centres unmarked) [Compound 322] | – | 1.7 | –
